Laboratory results taken from patent US8877928B2 (Shandong University, priority 2010, dated 2014).

Columns and labels:
[1] = Study of stability in plasma (disappearance of the conjugate by HPLC); settings: 37° C.
Experimental: The mixture was quenched with a CH3CN/MeOH mixture (800 μL) in a ratio of 1:1, swirled for 1 minute, and then filtered through a 0.2 μm filter membrane. 30 μl of the resulting filtrate was analyzed by HPLC, to measure the disappearance of the conjugate.

A549 = assay: cells; settings: Homo sapiens, A549, read-out: IC50 A549
Experimental: (§1) All cell lines were obtained from the American Type Culture Collection, and grown in the following media: COLO 205 and OVCAR-3 (RPMI 1640, containing 4.5 g/L glucose, 10 mM HEPES, 1 mM sodium pyruvate, 10% FBS); HT-29 (McCoy's 5a, containing 1.5 mM L-glutamine, 10% FBS); A549 (Ham's F12K, containing 10% FBS). All cell lines were maintained in an incubator at 37° C. containing 5% CO2. […] Briefly, the day before the start of the experiment the cells were incubated in a 96-well plate in a quantity of 10,000-20,000/well. […] At the end of the incubation period, an MTS dye was added, and then the colored product formazane as formed was measured by a Spectramax 340PC reader (Molecular Devices, CA) at 490 nm.
(§2) A interval was less than 0.100 μM; B interval was greater than 0.100 μM but less than 0.500 μM; C interval was greater than 0.500 μM but less than 2.000 μM; D interval was greater than 2.000 μM.

COLO 205 = assay: cells; settings: Homo sapiens, COLO 205, read-out: IC50 COLO205
Experimental: as §1, §2

HT-29 = assay: cells; settings: Homo sapiens, HT-29, read-out: IC50 HT 29
Experimental: as §1, §2

OVCAR-3 = assay: cells; settings: Homo sapiens, OVCAR-3, read-out: IC50 OVCAR3
Experimental: as §1, §2

[2] = cited from earlier work
[3] = loss of midline facial features, uniocular, lack of anatomical features from forebrain; cited from earlier work

Which “disappearance % 2 h” value ([1]; 2 h) does the source give for CC1=C2C[C@H]3[C@@H](CC=C4C[C@@H](O)CC[C@@]43C)[C@@H]2CC[C@]12O[C@@H]1C[C@H](C)CN[C@H]1[C@H]2C [cyclopamine] here?
Its value is 32%.

What about the “disappearance % 4 h” value ([1]; 4 h) of the same compound?
The value was 68%.

And the “disappearance % 24 h” value ([1]; 24 h)?
Its value is 83%.

And the IC50 (A549)?
Its IC50 is greater than 2000 nM.

What about the IC50 (COLO 205) of the same compound?
The IC50 was 100 to 500 nM.

And the IC50 (HT-29)?
Its IC50 is 100 to 500 nM.

What about the IC50 (OVCAR-3) of the same compound?
Its IC50 is 100 to 500 nM.

What about the “chemical stability at low pH” value [2] of the same compound?
Its value is “chemically instable”.

What about the teratogenicity [3] of the same compound?
Its teratogenicity is “teratogenic”.
